Laboratory results published in patent US10780090B2, “Heteroaryl compounds useful as inhibitors of SUMO activating enzyme” (Millennium Pharmaceuticals, Inc., priority 2014, dated 2020).
pIC50: −log10 of the molar value.

Molecular target: recombinant human SAE enzyme (Homo sapiens (Human), UniProt Q9UBT2)
Test: SAE HTRF enzyme assay
Type: biochemical
Conditions: for IC50: SAE inhibition, class symbols, legend in nM; for pIC50: class symbols A/B/C
Method in brief: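 This HTRF format monitors Sumo-Flag–Ubc9-GST thioester formation catalysed by 0.11 nM human SAE with 0.5 μM ATP over 105 min at 24° C. Inhibition is expressed at a single concentration or as IC50.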

[1] = SAE inhibition at compound concentration 0.111 μM

Chain of recombinant human SAE enzyme (Q9UBT2 whole entry): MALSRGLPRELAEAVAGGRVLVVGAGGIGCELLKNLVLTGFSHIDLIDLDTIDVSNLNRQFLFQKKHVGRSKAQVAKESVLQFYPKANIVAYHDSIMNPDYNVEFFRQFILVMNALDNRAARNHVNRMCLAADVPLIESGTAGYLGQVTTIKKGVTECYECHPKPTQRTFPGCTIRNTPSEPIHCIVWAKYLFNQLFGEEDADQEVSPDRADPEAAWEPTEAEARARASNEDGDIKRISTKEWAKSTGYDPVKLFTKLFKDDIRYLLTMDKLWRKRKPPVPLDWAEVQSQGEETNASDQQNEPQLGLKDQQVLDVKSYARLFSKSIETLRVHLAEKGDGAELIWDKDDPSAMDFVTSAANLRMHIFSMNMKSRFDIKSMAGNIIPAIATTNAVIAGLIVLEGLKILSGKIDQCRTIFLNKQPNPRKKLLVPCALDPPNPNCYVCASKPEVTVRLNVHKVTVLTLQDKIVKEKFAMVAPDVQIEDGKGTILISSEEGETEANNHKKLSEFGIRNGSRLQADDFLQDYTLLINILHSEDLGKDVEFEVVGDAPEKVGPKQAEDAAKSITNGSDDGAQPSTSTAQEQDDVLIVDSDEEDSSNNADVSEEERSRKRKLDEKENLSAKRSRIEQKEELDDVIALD
Chain of recombinant human SAE enzyme (Q9UBE0 whole entry partner): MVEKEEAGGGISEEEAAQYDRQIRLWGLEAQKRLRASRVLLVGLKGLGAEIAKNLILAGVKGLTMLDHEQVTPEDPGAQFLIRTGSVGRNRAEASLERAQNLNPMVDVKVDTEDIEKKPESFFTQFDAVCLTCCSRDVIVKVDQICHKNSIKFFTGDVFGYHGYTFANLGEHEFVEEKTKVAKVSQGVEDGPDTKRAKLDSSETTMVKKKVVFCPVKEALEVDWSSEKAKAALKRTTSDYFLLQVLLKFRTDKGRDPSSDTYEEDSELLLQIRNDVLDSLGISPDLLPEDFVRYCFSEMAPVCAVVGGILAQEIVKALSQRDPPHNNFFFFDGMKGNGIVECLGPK

Compound | IC50 | Percent Inhibition [1] | Percent Inhibition (Concentration 0.111 μM) | pIC50 | inhibition at 0.111 µM (Concentration 0.111 μM, read-out: Percent Inhibition)
CC[C@H](C)[C@H](N)C(=O)O[C@H]1C[C@H](Nc2ncncc2C(=O)c2cc([C@@H]3OCCc4ccc(Cl)cc43)c(C)s2)C[C@@H]1COS(N)(=O)=O.Cl [I-363, [(1S,2R,4R)-4-[[5-[4-[(1R)-7-chloroisochroman-1-yl]-5-methyl-thiophene-2-carbonyl]pyrimidin-4-yl]amino]-2-(sulfamoyloxymethyl)cyclopentyl (2S,3S)-2-amino-3-methyl-pentanoate hydrochloride] | 100 to 1000 nM | – | – | – | –
Cc1nc2n(c1C)CCO[C@@H]2c1cc(C(=O)c2cncnc2N[C@@H]2C[C@H](COS(N)(=O)=O)[C@@H](O)C2)sc1C (mixture of isomers) [I-356, ((1R,2S,4R)-4-{(5-(4-((R)-2,3-dimethyl-6,8-dihydro-5H-imidazo[2,1-c][1,4c]oxazin-8-yl)-5-methylthiophene-2-carbonyl)pyrimidin-4-yl)amino)-2-hydroxycyclopentyl)methyl sulfamate and ((1R,2S,4R)-4-((5-4-((S)-2,3-dimethyl-6,8-dihydro-5H-imidazo[2,1-c][1,4]oxazin-8-yl)-5-methylthiophene-2-carbonyl)pyrimidin-4-yl)amino)-2-hydroxycyclopentyl)methyl sulfamate] | < 10 nM | 97% | – | – | –
NS(=O)(=O)OC[C@H]1C[C@@H](Nc2ncncc2C(=O)c2cc([C@@H]3NCCc4ccccc43)cs2)C[C@@H]1O (single isomer, unassigned) [I-283b, [(1R,2S,4R)-2-hydroxy-4-{[5-({4-[(1R)-1,2,3,4-tetrahydroisoquinolin-1-yl]-2-thienyl}carbonyl)pyrimidin-4-yl]amino}cyclopentyl]methyl sulfamate or [(1R,2S,4R)-2-hydroxy-4-{[5-({4-[(1S)-1,2,3,4-tetrahydroisoquinolin-1-yl]-2-thienyl}carbonyl)pyrimidin-4-yl]amino}cyclopentyl]methyl sulfamate] | 10 to 100 nM | 93% | – | – | –
Cc1sc(C(=O)c2cncnc2N[C@@H]2C[C@H](COS(N)(=O)=O)[C@@H](O)[C@@H]2F)cc1[C@H]1OCCc2ccc(Cl)cc21 (single isomer, unassigned) [I-264b, [(1R,2R,3R,4R)-4-{[5-({4-[(1S)-7-chloro-3,4-dihydro-1H-isochromen-1-yl]-5-methyl-2-thienyl}carbonyl)pyrimidin-4-yl]amino}-3-fluoro-2-hydroxycyclopentyl]methyl sulfamate or [(1R,2R,3R,4R)-4-{[5-({4-[(1R)-7-chloro-3,4-dihydro-1H-isochromen-1-yl]-5-methyl-2-thienyl}carbonyl)pyrimidin-4-yl]amino}-3-fluoro-2-hydroxycyclopentyl]methyl sulfamate] | – | – | 98 | > 8.00 | –
NS(=O)(=O)OC[C@H]1C[C@@H](Nc2ncncc2C(=O)c2cc([C@@H]3NCCc4ccc(Cl)cc43)c(Cl)o2)C[C@@H]1O (single isomer, unassigned) [I-299b, {(1R,2S,4R)-4-[(5-{5-chloro-4-[(1R)-7-chloro-1,2,3,4-tetrahydroisoquinolin-1-yl]-2-furoyl}pyrimidin-4-yl)amino]-2-hydroxycyclopentyl}methyl sulfamate or {(1R,2S,4R)-4-[(5-{5-chloro-4-[(1S)-7-chloro-1,2,3,4-tetrahydroisoquinolin-1-yl]-2-furoyl}pyrimidin-4-yl)amino]-2-hydroxycyclopentyl}methyl sulfamate] | < 10 nM | 93% | – | – | –
COCc1sc(C(=O)c2cncnc2N[C@@H]2C[C@H](COS(N)(=O)=O)[C@@H](O)C2)cc1C(O)c1cccc(Cl)c1 (single isomer, unassigned) [I-7a, [(1R,2S,4R)-4-{[5-({4-[(R)-(3-chlorophenyl)(hydroxy)methyl]-5-(methoxymethyl)-2-thienyl}carbonyl)pyrimidin-4-yl]amino}-2-hydroxycyclopentyl]methyl sulfamate or [(1R,2S,4R)-4-{[5-({4-[(S)-(3-chlorophenyl)(hydroxy)methyl]-5-(methoxymethyl)-2-thienyl}carbonyl)pyrimidin-4-yl]amino}-2-hydroxycyclopentyl]methyl sulfamate] | – | – | 96 | > 8.00 | –
NS(=O)(=O)OC[C@H]1C[C@@H](Nc2ncncc2C(=O)c2cc(Cc3cccc(Cl)c3)c(CC3CCOCC3)s2)C[C@@H]1O [I-110, {(1R,2S,4R)-4-[(5-{[4-(3-chlorobenzyl)-5-(tetrahydro-2H-pyran-4-ylmethyl)-2-thienyl]carbonyl}pyrimidin-4-yl)amino]-2-hydroxycyclopentyl}methyl sulfamate] | – | – | – | > 8.00 | 98%
N[C@H](c1cccc(Br)c1)c1cc(C(=O)c2cncnc2N[C@@H]2C[C@H](COS(N)(=O)=O)[C@@H](O)[C@H]2O)sc1Cl (single isomer, unassigned) [I-24b, [(1R,2R,3S,4R)-4-{[5-({4-[(R)-amino(3-bromophenyl)methyl]-5-chloro-2-thienyl}carbonyl)pyrimidin-4-yl]amino}-2,3-dihydroxycyclopentyl]methyl sulfamate or [(1R,2R,3S,4R)-4-{[5-({4-[(S)-amino(3-bromophenyl)methyl]-5-chloro-2-thienyl}carbonyl)pyrimidin-4-yl]amino}-2,3-dihydroxycyclopentyl]methyl sulfamate] | – | – | 101 | – | –
Cc1sc(C(=O)c2cncnc2N[C@@H]2C[C@H](COS(N)(=O)=O)[C@@H](O)[C@H]2O)cc1[C@@H]1OCCc2ccccc21 (single isomer, unassigned) [I-250a, [(1R,2R,3S,4R)-4-{[5-({4-[(1R)-3,4-dihydro-1H-isochromen-1-yl]-5-methyl-2-thienyl}carbonyl)pyrimidin-4-yl]amino}-2,3-dihydroxycyclopentyl]methyl sulfamate or [(1R,2R,3S,4R)-4-{[5-({4-[(1S)-3,4-dihydro-1H-isochromen-1-yl]-5-methyl-2-thienyl}carbonyl)pyrimidin-4-yl]amino}-2,3-dihydroxycyclopentyl]methyl sulfamate] | – | – | 97 | > 8.00 | –
CC(O)(c1cccc(Cl)c1)c1coc(C(=O)c2cncnc2NC2CC(O)C(COS(N)(=O)=O)C2)c1 (mixture of isomers) [I-30, {(1R,2S,4R)-4-[(5-{4-[(1S)-1-(3-chlorophenyl)-1-hydroxyethyl]-2-furoyl}pyrimidin-4-yl)amino]-2-hydroxycyclopentyl}methyl sulfamate and {(1R,2S,4R)-4-[(5-{4-[(1R)-1-(3-chlorophenyl)-1-hydroxyethyl]-2-furoyl}pyrimidin-4-yl)amino]-2-hydroxycyclopentyl}methyl sulfamate] | – | – | 98 | > 8.00 | –
NS(=O)(=O)OC[C@H]1C[C@@H](Nc2ncncc2C(=O)c2cc([C@@H]3NCCc4ccc(Cl)cc43)c(Cl)o2)C[C@@H]1O (single isomer, unassigned) [I-299a, {(1R,2S,4R)-4-[(5-{5-chloro-4-[(1R)-7-chloro-1,2,3,4-tetrahydroisoquinolin-1-yl]-2-furoyl}pyrimidin-4-yl)amino]-2-hydroxycyclopentyl}methyl sulfamate or {(1R,2S,4R)-4-[(5-{5-chloro-4-[(1S)-7-chloro-1,2,3,4-tetrahydroisoquinolin-1-yl]-2-furoyl}pyrimidin-4-yl)amino]-2-hydroxycyclopentyl}methyl sulfamate] | < 10 nM | 101% | – | – | –
Cc1sc(C(=O)c2cncnc2N[C@@H]2C[C@H](COS(N)(=O)=O)[C@@H](O)C2)cc1[C@@H]1OCCc2ccc(C(F)(F)F)cc21 (mixture of isomers) [I-258, [(1R,2S,4R)-2-hydroxy-4-{[5-({5-methyl-4-[(1R)-7-(trifluoromethyl)-3,4-dihydro-1H-isochromen-1-yl]-2-thienyl}carbonyl)pyrimidin-4-yl]amino}cyclopentyl]methyl sulfamate and [(1R,2S,4R)-2-hydroxy-4-{[5-({5-methyl-4-[(1S)-7-(trifluoromethyl)-3,4-dihydro-1H-isochromen-1-yl]-2-thienyl}carbonyl)pyrimidin-4-yl]amino}cyclopentyl]methyl sulfamate] | – | – | 100 | > 8.00 | –
NS(=O)(=O)OC[C@H]1C[C@@H](Nc2ncncc2C(=O)c2cc([C@H](O)c3cccc(Cl)c3)cs2)C[C@@H]1O (single isomer, unassigned) [I-4a, [(1R,2S,4R)-4-{[5-({4-[(R)-(3-chlorophenyl)(hydroxy)methyl]-2-thienyl}carbonyl)pyrimidin-4-yl]amino}-2-hydroxycyclopentyl]methyl sulfamate or [(1R,2S,4R)-4-{[5-({4-[(S)-(3-chlorophenyl)(hydroxy)methyl]-2-thienyl}carbonyl)pyrimidin-4-yl]amino}-2-hydroxycyclopentyl]methyl sulfamate] | – | – | 99 | > 8.00 | –
N[C@H](c1cccc(Cl)c1)c1csc(C(=O)c2cncnc2N[C@@H]2C[C@H](COS(N)(=O)=O)[C@@H](O)C2)c1 (mixture of isomers) [I-36, [(1R,2S,4R)-4-{[5-({4-[(R)-amino(3-chlorophenyl)methyl]-2-thienyl}carbonyl)pyrimidin-4-yl]amino}-2-hydroxycyclopentyl]methyl sulfamate and [(1R,2S,4R)-4-{[5-({4-[(S)-amino(3-chlorophenyl)methyl]-2-thienyl}carbonyl)pyrimidin-4-yl]amino}-2-hydroxycyclopentyl]methyl sulfamate] | – | – | 100 | > 8.00 | –
